Patent US4933456A, “Dipyridoxyl phosphate NMRI contrast agents” (Salutar, Inc., priority 1987, dated 1990)
Where two headings read alike, the source gives them in different places.

Test system: selected body organs
Conditions: for T1: 0.01 mmol/kg i.v.
Method: Each of seven rabbits was injected intravenously with 0.01 mmol/kg of the solution obtained in Example 7. The rabbits were sacrificed at 0.25, 0.50, 1.0, 2.0, 4, 6 and 24 hours post-injection, and the proton relation values of selected body organs were measured with NMR, in vitro, at 10 MHz.

Cc1ncc(COP(=O)(O)O)c(CN(CCN(CC(=O)[O-])Cc2c(COP(=O)(O)O)cnc(C)c2O)CC(=O)[O-])c1O.[Mn+2] [Mn(DPDP), sodium-calcium salt of a manganese chelate complex of N,N,-bis-(pyridoxal-5-phosphate)ethylenediamine-N,N'-diacetic acid or N,N'-bis(3-hydroxy-2-methyl-5-phosphonomethyl-4-pyridylmethyl)ethylenediamine-N,N'-diacetic acid] showed a T1 (Bile, 0.25 hr) of 160 ms, a T1 (Bile, 0.50 hr) of 46 ms and a T1 (Bile, 1.0 hr) of 25 ms. For the same compound, the T1 (Bile, 2 hr) was 21 ms, the T1 (Bile, 4 hr) was < 1 ms and the T1 (Bile, 6 hr) was 14 ms. The T1 (Bile, 24 hr) was 107 ms, the T1 (Heart, 0.25 hr) was 231 ms and the T1 (Heart, 0.50 hr) was 352 ms. It also gave a T1 (Heart, 1.0 hr) of 381 ms, a T1 (Heart, 2 hr) of 507 ms and a T1 (Heart, 4 hr) of 522 ms. It also gave a T1 (Heart, 6 hr) of 663 ms, a T1 (Heart, 24 hr) of 660 ms and a T1 (Liver, 0.25 hr) of 68 ms. It also gave a T1 (Liver, 0.50 hr) of 76 ms, a T1 (Liver, 1.0 hr) of 48 ms and a T1 (Liver, 2 hr) of 48 ms. For the same compound, the T1 (Liver, 4 hr) was 145 ms, the T1 (Liver, 6 hr) was 209 ms and the T1 (Liver, 24 hr) was 315 ms. For the same compound, the T1 (Renal cortex, 0.25 hr) was 202 ms, the T1 (Renal cortex, 0.50 hr) was 191 ms and the T1 (Renal cortex, 1.0 hr) was 229 ms. It also gave a T1 (Renal cortex, 2 hr) of 192 ms, a T1 (Renal cortex, 4 hr) of 210 ms and a T1 (Renal cortex, 6 hr) of 239 ms. For the same compound, the T1 (Renal cortex, 24 hr) was 328 ms, the T1 (Renal medulla, 0.25 hr) was 192 ms and the T1 (Renal medulla, 0.50 hr) was 231 ms. For the same compound, the T1 (Renal medulla, 1.0 hr) was 236 ms, the T1 (Renal medulla, 2 hr) was 310 ms and the T1 (Renal medulla, 4 hr) was 340 ms. For the same compound, the T1 (Renal medulla, 6 hr) was 375 ms, the T1 (Renal medulla, 24 hr) was 563 ms and the “clearance through both the renal and hepatobiliary systems, time post-injection” value (rabbit, i.v.) was 6 to 8 h. The “uptake and clearance in the liver, renal cortex, renal medulla and heart” value (rabbit, i.v.) was “rapid uptake and clearance”.
